According to US12521375B2, “Pharmaceutical composition for treating fatty liver disease” (Shionogi & Co., Ltd., priority 2020, dated 2026):

Columns and labels:
[1] = Metabolic stability test (rat); format: in vitro ADME
Protocol: [Worded in the source for another species; this species is reported under the same test.] Commercially available pooled human liver microsomes were reacted with the compound of the present invention for a given time. A residual rate was calculated by comparison between the reacted sample and the unreacted sample to evaluate a degree at which the compound of the present invention is metabolized in the liver.
The compound was reacted at 37° C. for 0 minutes or 30 minutes in the presence of 1 mmol/L NADPH in 0.2 mL of a buffer (50 mmol/L Tris-HCl pH 7.4, 150 mmol/L potassium chloride, and 10 mmol/L magnesium chloride) containing 0.5 mg protein/mL of the human liver microsomes (oxidative reaction). After the reaction, 50 μL of the reaction solution was added to 100 μL of a solution of methanol/acetonitrile=1/1 (v/v) and mixed, and the mixture was centrifuged at 3000 rpm for 15 minutes. The compound of the present invention in the centrifuged supernatant was quantified by LC/MS/MS or solid-phase extraction (SPE)/MS. The amount of the compound of the present invention remained after the reaction was calculated with the amount of the compound at 0 minutes of the reaction defined as 100%.

[2] = test system: Malonyl-CoA concentration in organ; assay: Test for evaluating malonyl-CoA concentration in liver and muscles; format: in vivo, BKS.Cg-+Lepr^db/+Lepr^db/Jcl mice; conditions: for Malonyl-CoA concentration in organ with vehicle administration group defined as 100%, Liver / Malonyl-CoA concentration in organ with vehicle administration group defined as 100%, Muscle: 2 hours after administration
Protocol: Eight-week-old male BKS.Cg-+Lepr^db/+Lepr^db/Jcl mice were fasted for 4 hours, then the compound of the present invention was orally administered at a dose of 0.3 to 6 mg/5 mL/kg, and 2 hours after administration, the mice were killed by exsanguination through whole blood collection from the abdominal vena cava under anesthesia. Then, the liver and muscles were removed, and a 9% homogenate was prepared in a homogenizing buffer (distilled water: 60% perchloric acid: 85% phosphoric acid=43:5:2). The malonyl-CoA concentration in the tissue was quantified by LC/MS/MS.

[3] = biological target: recombinant human ACC2 (Homo sapiens (Human), UniProt O00763); assay: Measurement of inhibitory activity of human ACC2; format: biochemical; conditions: read-out: IC50 hACC2
Excerpt: A cDNA encoding human ACC2 protein (27 amino acid residues to 2458 amino acid residues from the N-terminus) was cloned from a human kidney cDNA library (Clontech Laboratories, Inc.), a His-tag sequence was introduced at the 5′ end, and then inserted into pFastBac1 (Invitrogen). A recombinant baculovirus was produced in accordance with the protocol for a Bac-to-Bac baculovirus expression system (Invitrogen), and Sf-9 cells were infected therewith to express human ACC2 protein. The recovered cells were crushed, filtered through a filter, and then subjected to Ni affinity chromatography and anion exchange chromatography. Fractions containing human ACC2 protein were collected to obtain recombinant human ACC2.
The recombinant human ACC1 and the recombinant human ACC2 obtained from the above Preparation Examples were preincubated in an assay buffer (50 mM HEPES-KOH (pH 7.4), 10 mM magnesium chloride, 6 to 10 mM potassium citrate, 4 mM reduced glutathione, and 1.5 mg/ml bovine serum albumin) for 1 hour. […] After incubation, the enzymatic reaction was stopped by addition of EDTA, and then the compound was co-crystallized with an α-cyano-4-hydroxy cinnamic acid (CHCA) matrix on a MALDI target plate, and measurement was performed in a reflector negative mode using a matrix-assisted laser desorption ionization-time-of-flight mass spectrometer (MALDI-TOF MS). Deprotonated ions of the substrate acetyl-CoA (AcCoA) and the reaction product malonyl-CoA (MalCoA) were detected, and the intensity of each signal was used to calculate a conversion rate to malonyl-CoA […], i.e., intensity of [MalCoA-H]-/(intensity of [MalCoA-H]-+intensity of [AcCoA-H]-). […] The potassium citrate concentration in the assay buffer, the potassium bicarbonate concentration in the substrate solution, and the incubation time were adjusted within the above concentrations or reaction times for each lot of the enzyme to be used.

[4] = test system: high-fat diet-loaded mice with spontaneous fatty liver; assay: Effect on liver fibrosis progression in high-fat diet-loaded mice with spontaneous fatty liver; format: in vivo, FLS.B6-Lep<ob>/Shi mice; parameters: 3-hydroxybutyric acid in plasma: unit not given here; conditions: for Amount of triglyceride in liver / Sirius red-positive area rate / 3-hydroxybutyric acid in plasma / Plasma triglyceride concentration: bid; for Amount of triglyceride in liver / Sirius red-positive area rate: oral, 4 weeks
Protocol: Eight-week-old male FLS.B6-Lep/Shi mice were fed a high-fat diet (60 kcal % fat content, using shortening, containing 2% cholesterol and 8.7% fructose), and at the same time, the compound of the present invention was suspended in a 0.5% MC aqueous solution so as to have a dose of 5.5 to 60 mg/kg/5 mL, and orally repeatedly administered (b.i.d.) for 4 weeks. Blood was collected from the tail vein during the repeated administration period, and biochemical parameters in plasma were measured. After 4 weeks of administration, blood was collected from the abdominal vena cava under anesthesia, and then the liver was collected. Paraffin-embedded sections prepared from the collected liver were subjected to Sirius red staining. A degree of fibrosis progression in the liver was determined from a Sirius red-positive area rate and evaluated.

recombinant human ACC2, sequence (O00763 27-2458): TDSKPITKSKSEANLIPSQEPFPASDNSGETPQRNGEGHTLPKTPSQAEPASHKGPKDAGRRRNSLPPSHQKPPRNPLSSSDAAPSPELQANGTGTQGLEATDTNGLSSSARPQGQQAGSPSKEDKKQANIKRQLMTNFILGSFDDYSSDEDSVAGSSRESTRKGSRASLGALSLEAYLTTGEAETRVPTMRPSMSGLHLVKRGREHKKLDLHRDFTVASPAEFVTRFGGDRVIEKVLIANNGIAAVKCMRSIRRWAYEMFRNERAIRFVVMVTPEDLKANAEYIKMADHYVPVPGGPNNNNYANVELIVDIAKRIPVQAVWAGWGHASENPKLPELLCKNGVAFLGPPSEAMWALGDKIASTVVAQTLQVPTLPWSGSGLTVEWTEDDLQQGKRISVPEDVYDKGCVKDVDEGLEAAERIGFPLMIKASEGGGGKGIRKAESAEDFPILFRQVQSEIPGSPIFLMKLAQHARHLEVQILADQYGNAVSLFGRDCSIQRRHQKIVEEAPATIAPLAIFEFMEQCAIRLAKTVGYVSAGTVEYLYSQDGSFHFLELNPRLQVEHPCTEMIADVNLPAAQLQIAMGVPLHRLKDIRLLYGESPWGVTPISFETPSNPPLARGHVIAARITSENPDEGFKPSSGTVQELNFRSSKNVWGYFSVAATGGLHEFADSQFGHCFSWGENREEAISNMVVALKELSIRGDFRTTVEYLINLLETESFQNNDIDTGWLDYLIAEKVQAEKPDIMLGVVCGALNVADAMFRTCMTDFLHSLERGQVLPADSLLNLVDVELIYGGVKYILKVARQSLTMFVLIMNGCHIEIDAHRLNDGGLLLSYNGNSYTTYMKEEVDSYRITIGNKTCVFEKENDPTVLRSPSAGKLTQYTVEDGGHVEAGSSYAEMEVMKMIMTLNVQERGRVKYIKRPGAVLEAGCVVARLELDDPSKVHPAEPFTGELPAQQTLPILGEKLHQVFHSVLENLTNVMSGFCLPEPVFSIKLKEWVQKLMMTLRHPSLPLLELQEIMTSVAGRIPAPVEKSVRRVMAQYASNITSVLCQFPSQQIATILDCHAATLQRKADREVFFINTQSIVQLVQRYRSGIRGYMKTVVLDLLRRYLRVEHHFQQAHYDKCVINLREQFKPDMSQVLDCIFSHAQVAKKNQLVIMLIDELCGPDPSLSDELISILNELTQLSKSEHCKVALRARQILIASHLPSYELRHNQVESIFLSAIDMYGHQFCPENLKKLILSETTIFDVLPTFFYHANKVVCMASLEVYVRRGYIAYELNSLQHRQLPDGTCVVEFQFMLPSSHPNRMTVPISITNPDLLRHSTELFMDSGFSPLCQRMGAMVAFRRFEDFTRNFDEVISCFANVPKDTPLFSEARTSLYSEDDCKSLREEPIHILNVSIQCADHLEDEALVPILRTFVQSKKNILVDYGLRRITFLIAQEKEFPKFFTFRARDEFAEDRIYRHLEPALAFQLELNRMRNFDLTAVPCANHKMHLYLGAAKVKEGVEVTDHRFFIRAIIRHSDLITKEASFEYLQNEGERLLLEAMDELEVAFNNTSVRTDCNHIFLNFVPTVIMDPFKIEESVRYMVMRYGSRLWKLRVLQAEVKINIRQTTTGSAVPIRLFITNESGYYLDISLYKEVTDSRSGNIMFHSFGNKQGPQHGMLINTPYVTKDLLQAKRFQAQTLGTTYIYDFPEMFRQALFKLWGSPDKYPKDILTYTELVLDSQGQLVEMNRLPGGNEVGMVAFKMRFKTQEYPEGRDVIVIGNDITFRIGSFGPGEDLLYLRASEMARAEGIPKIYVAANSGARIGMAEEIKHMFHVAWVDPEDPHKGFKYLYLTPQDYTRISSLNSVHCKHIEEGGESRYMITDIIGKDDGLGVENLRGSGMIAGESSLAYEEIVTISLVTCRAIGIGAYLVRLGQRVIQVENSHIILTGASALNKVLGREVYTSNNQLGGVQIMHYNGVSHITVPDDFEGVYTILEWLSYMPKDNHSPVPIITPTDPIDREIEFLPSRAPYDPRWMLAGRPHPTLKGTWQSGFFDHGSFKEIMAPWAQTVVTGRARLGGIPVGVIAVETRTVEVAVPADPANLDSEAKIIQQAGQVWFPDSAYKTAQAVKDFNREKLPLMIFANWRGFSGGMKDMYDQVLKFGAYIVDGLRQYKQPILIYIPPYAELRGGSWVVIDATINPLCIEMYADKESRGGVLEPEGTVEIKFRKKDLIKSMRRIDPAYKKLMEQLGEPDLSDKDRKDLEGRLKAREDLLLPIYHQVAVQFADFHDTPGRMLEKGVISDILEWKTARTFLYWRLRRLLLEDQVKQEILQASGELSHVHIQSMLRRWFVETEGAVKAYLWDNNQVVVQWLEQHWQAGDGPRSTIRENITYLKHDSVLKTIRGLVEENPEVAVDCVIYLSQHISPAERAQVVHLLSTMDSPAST

Amount of compound remained, Rat [1]: 85.5% | IC50 [3]: 5.6 nM | Plasma triglyceride concentration ([4]; 5.5 mg/kg, Week 0): 790 ± 95 mg/dL | Plasma triglyceride concentration ([4]; 5.5 mg/kg, Week 1): 369 ± 32 mg/dL | Plasma triglyceride concentration ([4]; 5.5 mg/kg, Week 2): 464 ± 30 mg/dL | Plasma triglyceride concentration ([4]; 5.5 mg/kg, Week 4): 513 ± 23 mg/dL | Plasma triglyceride concentration ([4]; 11 mg/kg, Week 0): 619 ± 76 mg/dL | Plasma triglyceride concentration ([4]; 11 mg/kg, Week 1): 382 ± 44 mg/dL | Plasma triglyceride concentration ([4]; 11 mg/kg, Week 2): 497 ± 39 mg/dL | Plasma triglyceride concentration ([4]; 11 mg/kg, Week 4): 500 ± 27 mg/dL
Structure (SMILES): C[C@@H](CO[C@H]1CC[C@H](Oc2nc3c(F)cc(OC4CC4)cc3n2C)CC1)NC(N)=O [Compound I-12]
Malonyl-CoA concentration in organ with vehicle administration group defined as 100%, Liver ([2]; 0.67 mg/kg oral): 92.8% | Malonyl-CoA concentration in organ with vehicle administration group defined as 100%, Muscle ([2]; 0.67 mg/kg oral): 70.8% | Malonyl-CoA concentration in organ with vehicle administration group defined as 100%, Liver ([2]; 2 mg/kg oral): 91.1% | Malonyl-CoA concentration in organ with vehicle administration group defined as 100%, Muscle ([2]; 2 mg/kg oral): 59.5% | Malonyl-CoA concentration in organ with vehicle administration group defined as 100%, Liver ([2]; 6 mg/kg oral): 84.0% | Malonyl-CoA concentration in organ with vehicle administration group defined as 100%, Muscle ([2]; 6 mg/kg oral): 56.4% | malonyl-CoA concentrations in the liver and muscles (in words) ([2]; 0.3 to 6 mg/kg oral): reduced malonyl-CoA concentrations in the liver and muscles in a compound dose-dependent manner | Amount of triglyceride in liver ([4]; 5.5 mg/kg): 451 ± 17 mg/g tissue | Sirius red-positive area rate ([4]; 5.5 mg/kg): 1.26 ± 0.13 % | 3-hydroxybutyric acid in plasma ([4]; 5.5 mg/kg, Week 0): 184 ± 20 | 3-hydroxybutyric acid in plasma ([4]; 5.5 mg/kg, Week 1): 470 ± 93 | 3-hydroxybutyric acid in plasma ([4]; 5.5 mg/kg, Week 2): 1108 ± 120 | 3-hydroxybutyric acid in plasma ([4]; 5.5 mg/kg, Week 4): 1354 ± 170 | Amount of triglyceride in liver ([4]; 11 mg/kg): 441 ± 11 mg/g tissue | Sirius red-positive area rate ([4]; 11 mg/kg): 1.52 ± 0.18% | 3-hydroxybutyric acid in plasma ([4]; 11 mg/kg, Week 0): 178 ± 8.7 | 3-hydroxybutyric acid in plasma ([4]; 11 mg/kg, Week 1): 449 ± 140 | 3-hydroxybutyric acid in plasma ([4]; 11 mg/kg, Week 2): 1314 ± 370 | 3-hydroxybutyric acid in plasma ([4]; 11 mg/kg, Week 4): 1508 ± 380 | Sirius red-positive area rate vs vehicle administration group (in words) ([4]; dose of 5.5 mg/kg): significantly lower than that of the vehicle administration group | amount of triglyceride in the liver vs vehicle administration group (in words) ([4]; mouse, in vivo): not significantly different from that in the vehicle administration group | concentration of 3-hydroxybutyric acid in plasma vs vehicle administration group (in words) ([4]; mouse, in vivo): tended to be higher than that in the vehicle administration group | plasma triglyceride concentration vs vehicle administration group (in words) ([4]; mouse, in vivo): not significantly different from that in the vehicle administration group
